Reference: ChEMBL document CHEMBL5154907, “Discovery and Anti-Inflammatory Activity Evaluation of a Novel CDK8 Inhibitor through Upregulation of IL-10 for the Treatment of Inflammatory Bowel Disease In Vivo” (J Med Chem, 2022)
Active and inactive are the calls of the source. No cut-off for these calls is given here.

Legend:
[1] = Half life in Sprague-Dawley rat at 10 mg/kg, po measured for 3 to 1440 mins by HPLC analysis; format: ADME, organism-based; conditions: in vivo, time 3-1440 min
Mus musculus [2] = assay: Anti-inflammatory activity in C57BL/6 mouse model of inflammatory bowel disease assessed as reduction in number of DSS-induced inflammatory cells in colon tissue at 5 to 20 mg/kg, po daily measured after 10 days by hematoxylin and eosin staining based histopathological analysis; format: functional, organism-based; conditions: dose 5-20 mg/kg, time 10.0 day
BMDC [3] = assay: Anti-inflammatory activity against R848-stimulated mouse BMDC cells assessed as upregulation of IL-10 production by ELISA method; format: functional, cell-based
[4] = Stability of compound in human liver microsome assessed as intrinsic clearance by HPLC analysis; format: ADME; conditions: liver microsomes, read-out: CLH
Mus musculus [5] = assay: Anti-inflammatory activity in C57BL/6 mouse model of inflammatory bowel disease assessed as decrease in DSS-induced neutrophil infiltration in colon tissue by measuring MPO activity at 5 to 20 mg/kg, po administered for 10 days; format: functional, organism-based; conditions: dose 5-20 mg/kg, time 10.0 day, DDE = dose-dependent effect
Mus musculus [6] = assay: Anti-inflammatory activity in C57BL/6 mouse model of inflammatory bowel disease assessed as decrease in DSS-induced IL-6 levels in serum at 5 to 20 mg/kg, po daily measured after 10 days by ELISA method; format: functional, organism-based; conditions: dose 5-20 mg/kg, time 10.0 day
[7] = biological target: c-Jun N-terminal kinase (Mus musculus) (UniProt Q91Y86+Q9WTU6+Q61831); assay: Inhibition of JNK phosphorylation in R848-stimulated mouse BMDC cells at 1 to 4 uM treated for 2 hrs followed by R848 stimulation for 12 hrs by western blot analysis; format: cell-based; conditions: dose 1-4 µM, time 14.0 hrs
Mus musculus [8] = assay: Anti-inflammatory activity in C57BL/6 mouse model of inflammatory bowel disease assessed as increase in DSS-induced IL-10 levels in colon tissue administered orally daily measured after 10 days by ELISA method; format: functional, organism-based; conditions: dose 5-20 mg/kg, route po, time 10.0 day
[9] = MRT in Sprague-Dawley rat at 10 mg/kg, po measured for 3 to 1440 mins by HPLC analysis; format: ADME, organism-based; conditions: in vivo, time 3-1440 min
[10] = biological target: Cyclin-dependent kinase 8 (Homo sapiens) (UniProt P49336); assay: Binding affinity to CDK8 in human HCT-116 cells assessed as thermal stability at 49 degC treated for 4 hrs followed by compound washout by CETSA assay; format: cell-based; conditions: dose 0.5-10 µM, DDE = dose-dependent effect
[11] = Acute toxicity in 12 hr fasted ICR mouse assessed as body weight loss at 2000 mg/kg, po measured daily for 7 days; format: organism-based; conditions: in vivo, 168 h, time 7 day
[12] = biological target: Cyclin-dependent kinase 8 (Homo sapiens) (UniProt P49336); assay: Binding affinity to CDK8 in human HCT-116 cells assessed as reduction in protease-induced CDK8 degradation at 1 to 4 uM treated for 6 hrs followed by protease treatment for 30 mins by western blot analysis; format: cell-based; conditions: dose 1-4 µM, time 390.0 min, DDE = dose-dependent effect
[13] = biological target: Cyclin-dependent kinase 8 (Homo sapiens) (UniProt P49336); assay: Inhibition of CDK8 in human HCT-116 cells assessed as STAT-1 phosphorylation at Ser727 at 1 to 4 uM treated for 24 hrs by western blot analysis; format: cell-based; conditions: dose 1-4 µM
Mus musculus [14] = assay: Anti-inflammatory activity in C57BL/6 mouse model of inflammatory bowel disease assessed as reduction in DSS-induced cellular infiltration in colon tissue at 5 to 20 mg/kg, po daily measured after 10 days by hematoxylin and eosin staining based histopathological analysis; format: functional, organism-based; conditions: dose 5-20 mg/kg, time 10.0 day
Mus musculus [15] = assay: Anti-inflammatory activity in C57BL/6 mouse model of inflammatory bowel disease assessed as reduction in DSS-induced crypt loss in colon tissue at 5 to 20 mg/kg, po daily measured after 10 days by hematoxylin and eosin staining based histopathological analysis; format: functional, organism-based; conditions: dose 5-20 mg/kg, time 10.0 day
[16] = Stability in human liver microsomes; format: ADME, Microsome
BMDC [17] = assay: Inhibition of NF-kappa-B phosphorylation in R848-stimulated mouse BMDC cells at 1 to 4 uM treated for 2 hrs followed by R848 stimulation for 12 hrs by western blot analysis; format: cell-based; conditions: dose 1-4 µM, time 14.0 hrs
BMDC [18] = assay: Anti-inflammatory activity against R848 stimulated-mouse BMDC cells assessed as downregulation of IL-6 production by ELISA method; format: functional, cell-based
BMDC [19] = assay: Inhibition of ERK phosphorylation in R848-stimulated mouse BMDC cells at 1 to 4 uM treated for 2 hrs followed by R848 stimulation for 12 hrs by western blot analysis; format: cell-based; conditions: dose 1-4 µM, time 14.0 hrs
[20] = biological target: T1, Cyclin-dependent kinase 8 (Mus musculus) (UniProt Q8R3L8); assay: Inhibition of CDK8 in IFN-gamma-stimulated mouse BMDC cells assessed as STAT-1 phosphorylation at Ser727 at 1 to 4 uM treated for 2 hrs followed by IFN-gamma stimulation for 12 hrs by western blot analysis; format: cell-based; conditions: dose 1-4 µM, time 14.0 hrs
T1 sequence (whole entry): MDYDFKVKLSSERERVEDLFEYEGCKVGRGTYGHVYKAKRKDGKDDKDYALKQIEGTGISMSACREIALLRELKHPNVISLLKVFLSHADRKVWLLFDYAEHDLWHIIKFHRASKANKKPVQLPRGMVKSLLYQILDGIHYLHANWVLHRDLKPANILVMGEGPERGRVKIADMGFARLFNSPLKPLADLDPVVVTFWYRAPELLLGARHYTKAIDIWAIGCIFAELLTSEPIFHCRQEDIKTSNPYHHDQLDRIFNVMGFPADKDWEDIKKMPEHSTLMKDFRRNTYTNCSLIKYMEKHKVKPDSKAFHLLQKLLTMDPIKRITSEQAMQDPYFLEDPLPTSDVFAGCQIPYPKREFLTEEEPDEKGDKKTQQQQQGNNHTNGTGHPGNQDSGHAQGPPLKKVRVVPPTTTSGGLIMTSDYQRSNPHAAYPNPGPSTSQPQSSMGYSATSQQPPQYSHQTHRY

[21] = Acute toxicity in 12 hr fasted ICR mouse assessed as effect on liver at 2000 mg/kg, po measured after 7 days by hematoxylin and eosin staining based histopathological analysis; format: organism-based; conditions: in vivo, 168 h, time 7 day
[22] = Half life in Sprague-Dawley rat at 5 mg/kg, iv measured for 3 to 1440 mins by HPLC analysis; format: ADME, organism-based; conditions: in vivo, time 3-1440 min
Mus musculus [23] = assay: Anti-inflammatory activity in C57BL/6 mouse model of inflammatory bowel disease assessed as decrease in DSS-induced JNK phosphorylation in colon tissue at 5 to 20 mg/kg, po measured after 10 days by western blot analysis; format: functional, organism-based; conditions: dose 5-20 mg/kg, time 10.0 day, DDE = dose-dependent effect
Mus musculus [24] = assay: Anti-inflammatory activity in C57BL/6 mouse model of inflammatory bowel disease assessed as suppression of DSS-induced NF-kappa-B p65 expression in colon tissue at 5 to 20 mg/kg, po measured after 10 days by western blot analysis; format: functional, organism-based; conditions: dose 5-20 mg/kg, time 10.0 day
[25] = Cmax in Sprague-Dawley rat at 5 mg/kg, iv measured for 3 to 1440 mins by HPLC analysis; format: ADME, organism-based; conditions: in vivo
[26] = AUC (0 to infinity) in Sprague-Dawley rat at 10 mg/kg, po measured for 3 to 1440 mins by HPLC analysis; format: ADME, organism-based; conditions: in vivo
Mus musculus [27] = assay: Anti-inflammatory activity in C57BL/6 mouse model of inflammatory bowel disease assessed as decrease in DSS-induced TNF-alpha levels in colon tissue at 5 to 20 mg/kg, po daily measured after 10 days by ELISA method; format: functional, organism-based; conditions: dose 5-20 mg/kg, time 10.0 day

Cyclin-dependent kinase 8 (Homo sapiens), sequence (P49336 whole entry): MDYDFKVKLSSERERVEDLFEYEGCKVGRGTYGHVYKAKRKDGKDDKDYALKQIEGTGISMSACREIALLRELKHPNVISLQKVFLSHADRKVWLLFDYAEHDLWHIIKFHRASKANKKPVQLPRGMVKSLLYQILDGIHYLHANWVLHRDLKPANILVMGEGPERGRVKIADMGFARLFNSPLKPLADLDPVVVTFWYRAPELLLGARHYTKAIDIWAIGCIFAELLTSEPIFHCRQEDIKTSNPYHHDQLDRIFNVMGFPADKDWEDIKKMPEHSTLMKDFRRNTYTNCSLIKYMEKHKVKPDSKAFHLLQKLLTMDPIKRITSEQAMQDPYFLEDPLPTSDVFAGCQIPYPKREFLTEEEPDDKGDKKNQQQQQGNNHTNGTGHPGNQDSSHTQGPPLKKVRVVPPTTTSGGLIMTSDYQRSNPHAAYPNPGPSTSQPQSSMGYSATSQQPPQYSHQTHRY
c-Jun N-terminal kinase (Mus musculus), sequence (Q61831 whole entry, looked up): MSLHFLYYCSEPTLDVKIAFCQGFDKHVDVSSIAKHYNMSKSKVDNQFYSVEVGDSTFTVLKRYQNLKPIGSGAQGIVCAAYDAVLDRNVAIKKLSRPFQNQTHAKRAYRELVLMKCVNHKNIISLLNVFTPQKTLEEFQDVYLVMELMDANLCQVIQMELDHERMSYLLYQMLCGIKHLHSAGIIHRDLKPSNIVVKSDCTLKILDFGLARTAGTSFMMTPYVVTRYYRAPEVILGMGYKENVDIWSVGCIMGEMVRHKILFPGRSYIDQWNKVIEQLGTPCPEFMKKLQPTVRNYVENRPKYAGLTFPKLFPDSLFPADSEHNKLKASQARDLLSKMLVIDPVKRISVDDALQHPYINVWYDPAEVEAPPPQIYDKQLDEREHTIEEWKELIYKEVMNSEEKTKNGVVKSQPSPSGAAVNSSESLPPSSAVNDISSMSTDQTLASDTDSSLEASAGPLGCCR
c-Jun N-terminal kinase (Mus musculus), sequence (Q91Y86 whole entry, looked up): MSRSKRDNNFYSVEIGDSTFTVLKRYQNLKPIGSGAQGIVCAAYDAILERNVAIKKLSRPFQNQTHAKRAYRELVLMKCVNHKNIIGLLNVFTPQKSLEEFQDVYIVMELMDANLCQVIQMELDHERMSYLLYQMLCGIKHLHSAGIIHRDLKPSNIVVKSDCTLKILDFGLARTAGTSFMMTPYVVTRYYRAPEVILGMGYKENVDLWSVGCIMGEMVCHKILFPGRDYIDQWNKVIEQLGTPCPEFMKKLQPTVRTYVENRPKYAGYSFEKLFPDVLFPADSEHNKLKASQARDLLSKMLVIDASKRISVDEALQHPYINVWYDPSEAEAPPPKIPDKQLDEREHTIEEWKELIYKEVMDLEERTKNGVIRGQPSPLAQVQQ
c-Jun N-terminal kinase (Mus musculus), sequence (Q9WTU6 whole entry, looked up): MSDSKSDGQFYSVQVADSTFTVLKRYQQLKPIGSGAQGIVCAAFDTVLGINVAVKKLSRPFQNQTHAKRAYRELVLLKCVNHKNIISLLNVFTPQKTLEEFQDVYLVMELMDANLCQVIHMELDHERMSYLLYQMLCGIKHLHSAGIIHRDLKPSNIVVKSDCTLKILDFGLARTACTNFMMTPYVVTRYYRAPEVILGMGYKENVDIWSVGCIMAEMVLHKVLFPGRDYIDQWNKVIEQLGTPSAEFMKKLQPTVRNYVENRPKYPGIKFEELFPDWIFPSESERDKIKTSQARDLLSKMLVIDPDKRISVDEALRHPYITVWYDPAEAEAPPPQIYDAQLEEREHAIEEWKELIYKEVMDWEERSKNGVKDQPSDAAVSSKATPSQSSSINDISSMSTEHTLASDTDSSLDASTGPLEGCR

CCc1ccccc1NC(=O)c1cncc(-c2ccc(C(=O)N3CCNCC3)cc2)c1
half-life [1]: 2.18 h
Activity (Mus musculus [2]): Active
Activity (BMDC [3]): Active
microsomal CLint [4]: 5.5 µL/min/mg
Activity (Mus musculus [5]): Dde
Activity (Mus musculus [6]): Active
inhibition [7]: Active
Activity (Mus musculus [8]): Active
MRT [9]: 2.03 h
Activity [10]: Dde
Activity [11]: Non-Toxic
Activity [12]: Dde
inhibition [13]: Active
Activity (Mus musculus [14]): Active
Activity (Mus musculus [15]): Active
Stability [16]: Stable
inhibition (BMDC [17]): Active
Activity (BMDC [18]): Active
inhibition (BMDC [19]): Active
inhibition [20]: Active
Activity [21]: Non-Toxic
half-life [22]: 1.83 h
Activity (Mus musculus [23]): Dde
Activity (Mus musculus [24]): Active
Cmax [25]: 528 ng/mL
AUC(0-inf) [26]: 520 ng·h/mL
Activity (Mus musculus [27]): Active
